# What was measured:
# [1] = Inactivity (sedation) of rats during the forced swimming test
# Protocol: Prostaglandin and serotonin are previously implicated in stress-mediated blood-brain barrier disruption. To examine whether prostaglandin and serotonin could contribute to opening of the blood-brain barrier, the rats are treated with indomethacin (10 mg/kg, i.p.) and cyproheptadine (15 mg/kg, i.p.) and then performing the forced swimming test, wherein indomethacincan can reduce the synthesis of prostaglandin and cyproheptadine competes with serotonin in that it acts on a postsynaptic receptor.
# [2] = system: blood-brain barrier; assay: Claustrophobia test in gas chamber, EBD extravasation; format: in vivo, rats; conditions: breathing 100% O2 vs normal air, P>0.05, FIG. 6A
# Description: FIGS. 6A and 6B show the effects of increased pO2 on the blood-brain barrier permeability. FIG. 6A is a quantitative diagram showing the detection amount of EBD in different districts of the brain of the rats in the claustrophobia test. FIG. 6B is a quantitative diagram showing the detection amount of EBD in the blood of the rats in the claustrophobia test. The rats are placed in gas chambers and allowed to breathe either normal air or 100% O2, and then performing the claustrophobia test.
# [3] = system: blood-brain barrier; assay: Hypoventilation respiratory treatment, EBD extravasation; format: in vivo, rats; conditions: hypoventilation (50 BPM) with 100% O2; FIGS. 8A, 8B
# Protocol: A regional metabolic acidosis is caused by a local brain activity, but more global […] can also be induced by a hypoventilation. Given that increased blood pO2 substantially potentiates the blood-brain barrier opening by CO2/H^+, we further examine whether increasing pO2 in the rats subjected to the hypoventilation could open the blood-brain barrier in this example. The rats are injected with EBD first, and the rats are grouped and treated with a respiratory treatment by different levels of ventilation. Next, quantifying the EBD extravasation into different districts of the brain of the rats after the respiratory treatment. The respiratory treatment are a physiologically rate, the hypoventilation and a general ventilation, wherein a respiratory rate of the physiologically rate is 90 BPM (breath per minute) by using a tracheotomy, the respiratory rate of the general ventilation is 80 BPM, and the respiratory rate of the hypoventilation is 50 BPM. […]
# The data of the respiratory treatment is shown in Table 4 as follows and FIG. 8A-8C. […] FIG. 8B is a quantitative diagram showing the detection amount of EBD in different districts of the brain and the blood of the rats in the hypoventilation. FIG. 8C is a quantitative diagram showing the detection amount of EBD in different districts of the brain and the blood of the rats increased a ventilation rate.
# [4] = system: blood-brain barrier; assay: Forced swim test, EBD extravasation after drug treatment; format: in vivo, rats; conditions: EIPA 5 mg/kg i.p.; zoniporide 20 mg/kg i.p.; FIG. 4C
# Description: In a forced swim test, the rats are forced to swim in an opaque tank with limited spatial information, wherein a diameter, a height and a depth of the opaque tank is 43 cm, 54 cm and 29 cm, respectively.
# To examine whether the NHE contributes to metabolic blood-brain barrier disruption during stressful activity, we administer either a vehicle (i.p.) or an NHE inhibitor (i.p.) to EBD-treated rats prior to forced swimming and quantify the EBD extravasation into the brain.
# [5] = indomethacin 10 mg/kg i.p., cyproheptadine 15 mg/kg i.p., EIPA 5 mg/kg i.p.
Compound,"sedation at the dose used ([1]; rat, in vivo)",EBD extravasation into the motor cortex during the forced swimming test [4],other results
COc1ccc2c(c1)c(CC(=O)O)c(C)n2C(=O)c1ccc(Cl)cc1 [indomethacin],marked sedation,–,–
CN1CCC(=C2c3ccccc3C=Cc3ccccc32)CC1 [cyproheptadine],marked sedation,–,–
O=O [100% O2],–,–,"increase in blood-brain barrier permeability (EBD extravasation in motor cortex, caudate/putamen, hippocampus) [2]: not significant; blood-brain barrier opening [3]: opens the blood-brain barrier"
"CCN(c1nc(N)c(C(=O)NC(=N)N)nc1Cl)C(C)C [EIPA, Ethylisopropyl amiloride]",–,attenuates,"number of the rats that remain inactive during the forced swimming test [1, 5]: 0/6; sedation at the dose used [1, 5]: not sedative"
N=C(N)NC(=O)c1cnn(-c2cccc3ncccc23)c1C1CC1 [zoniporide],–,attenuates,–
